Reference: patent US10954235B2, “Crystalline forms of valbenazine salts” (Sandoz AG, priority 2017, dated 2021)

Test: Differential scanning calorimetry (DSC), thermal stability
Type: physicochemical
Settings: heating rate 10 K/min; judged from first endotherm
Method: Differential scanning calorimetry (DSC) was performed with a DSC 7 (Perkin-Elmer, Norwalk, Conn., USA) using a Pyris 2.0 software. 4.7307±0.0005 mg sample (using a UM3 ultramicrobalance, Mettler, Greifensee, CH) were weighed into Al-Pans (25 microliter) and sealed with a cover, which was perforated by a needle. The sample was heated at a rate of 10 K/min. Dry nitrogen was used as the purge gas (purge rate: 20 mL/min). Differential scanning calorimetry (DSC) was performed with a DSC 7 (Perkin-Elmer, Norwalk, Conn., USA) using a Pyris 2.0 software. 7.115±0.0005 mg sample (using a UM3 ultramicrobalance, Mettler, Greifensee, CH) were weighed into Al-Pans (25 microliter) and sealed with a cover, which was perforated by a needle. The sample was heated at a rate of 10 K/min. Dry nitrogen was used as the purge gas (purge rate: 20 mL/min).

stability against temperature stress (DSC): very stable against temperature stress
SMILES: COc1cc2c(cc1OC)[C@H]1C[C@@H](OC(=O)[C@@H](N)C(C)C)[C@H](CC(C)C)CN1CC2 [Example 1, ((S)-(2R,3R,11bR)-3-isobutyl-9,10-dimethoxy-2,3,4,6,7,11b-hexahydro-1H-pyrido[2,1-a]isoquinolin-2-yl 2-amino-3-methylbutanoate) ditosylate]
